Results published in patent publication US8507464B2, “Phosphoramidate alkylator prodrugs” (Threshold Pharmaceuticals, Inc., priority 2005, dated 2013).
≈ marks a conversion by molar mass, not a printed value. Where two headings read alike, the source gives them in different places.

Assays:
[1] = test system: HT-29 human colon carcinoma xenograft; experiment: HT-29 human colon carcinoma xenograft mouse model (Example 47); assay type: in vivo; conditions: for % Inhibition vs Group 1: vs vehicle
Method: Female CB17/SCID mice (purchased from Charles River, Cambridge, Mass.), 7-8 weeks of age, were allowed to acclimatize for at least three days, and handled under pathogen-free conditions. Human colon carcinoma cell line HT-29 was obtained from the American Type Culture Collection. The cell lines were cultured in RPMI 1640 media supplemented with 10% fetal bovine serum. Cells were maintained in a 37° C. incubator with 5% CO2. The HT-29 cells were harvested from culture and inoculated at 3×10^6 cells/animal in the peritoneal subcutaneous space. When the tumors grew to an average volume of 100 mm^3 (day 8), each group of 10 mice was administered, for three weeks, vehicle alone (saline and PEG (10 mL/kg each), Group 1), Compound 36 alone (dissolved in 30% cyclodextrin in PBS) at a daily dose of 20, 60, or 200 mg/kg (Groups 2, 3 and 4, respectively), and Compound 36 at a daily dose of 20, 60, and 200 mg/kg given 2-3 hours after a dose of 10 mg/kg of 5FU (in saline) (Group 5, 6 and 7, respectively) and compared to a group receiving only 5FU at 10 mg/kg (Group 8) as tabulated below.
The body weight of each mouse was recorded twice per week. Growth of each xenograft was monitored by externally measuring tumors in two dimensions using a digital caliper twice per week. Tumor volume (V) was determined by the following equation: V=(L×W^2)/2, where L is the length and W is the width of a xenograft. Tumor volumes were measured twice weekly.

[2] = test system: HT29 cells; experiment: Clonogenic assay - oxygen dependence; conditions: Homo sapiens
[3] = Solubility in saline at room temperature; assay type: physicochemical; conditions: saline or isotonic
[4] = test system: PC3 cells; experiment: Cell cycle distribution (flow cytometry); assay type: cell-based, human
Method: (§1) Cells ([…], PC3 and HT29) were seeded at a density of 1.0×10^6 cells/3 ml medium per 60 mm dish. After 24 h attachment, cells were exposed to Compound 25 at the indicated concentrations for 2 h under either normoxia (air) or anoxia (nitrogen). Cells were washed twice, and incubated for an additional 22 h in fresh medium. Cells were trypsinized, centrifuged, and fixed in 75% ethanol at least for 24 h at −20° C. Cell cycle distribution was determined using Guava Cell Cycle reagent (Guava, Hayward, Calif.) by flow cytometry (Guava, Hayward, Calif.).

[5] = test system: HT29 cells; experiment: Cell cycle distribution (flow cytometry); assay type: cell-based, human
Method: as §1

[6] = test system: AA8; experiment: Clonogenic survival - DNA mutant repair cells; conditions: Cricetulus griseus
[7] = In vivo plasma or tumor pharmacokinetics of Compound 25 (Table 4); parameters: species or system CD-1 mice (nude mice where noted)
[8] = test system: HT29 cells; experiment: Antiproliferation assay - oxygen dependence; assay type: cell-based; conditions: Homo sapiens
Excerpt: . […] The calculated IC50 values (μM) are tabulated in Table Y1 (H460 cells) or Table Y2 (HT29 cells) below.

[9] = 50 mg/kg i.v., 30% PEG/70% Saline, CD-1 mice
[10] = CD-1, mouse, plasma, ip, 25 mg/kg, 25 mg/kg i.p., 10% PEG, CD-1 mice
[11] = CD-1, mouse, plasma, ip, 50 mg/kg, 50 mg/kg i.p., Saline, CD-1 mice
[12] = CD-1, mouse, plasma, iv, 50 mg/kg, 50 mg/kg i.v., 30% PEG/70% Saline, CD-1 mice
[13] = CD-1, mouse, plasma, po, 50 mg/kg, 50 mg/kg p.o., Saline, CD-1 mice
[14] = CD-1, mouse, plasma, po, 100 mg/kg, 100 mg/kg p.o., Saline, CD-1 mice
[15] = nude, mouse, plasma, ip, 150 mg/kg, 150 mg/kg i.p., Saline, nude mice with H460 tumor
[16] = nude, mouse, tumor, ip, 150 mg/kg, 150 mg/kg i.p., Saline, nude mice with H460 tumor, Tumor PK

## Cn1c(COP(=O)(NCCCl)NCCCl)cnc1[N+](=O)[O-] [Compound 36]
[1]; Group 2: Compound 36 20 mg/kg daily, 3 weeks
  % Inhibition vs Group 1: 34.6%
[1]; Group 3: Compound 36 60 mg/kg daily
  % Inhibition vs Group 1: 16.1%
[1]; Group 4: Compound 36 200 mg/kg daily
  % Inhibition vs Group 1: 20.2%
[1]; particularly high dose group
  body weight and mortality: some degree of weight loss and occasional mortality

## Cn1c(COP(=O)(NCCBr)NCCBr)cnc1[N+](=O)[O-] [Compound 25]
[2]; HT-29, read-out: IC90 HT29 0.6% O2
  IC90: 3000 nM
[2]; HT-29, read-out: IC90 HT29 Air
  IC90: 40000 nM
[2]; HT-29, read-out: IC90 HT29 N2
  IC90: 200 nM
[3]
  solubility: 15 mg/mL (≈ 33.4 mM)
[4]; 0.0005 μM, Air
  Cell cycle G0/G1: 55
  Cell cycle G2/M: 32
  Cell cycle S: 12
[4]; 0.0005 μM, Nitrogen
  Cell cycle G0/G1: 59
  Cell cycle G2/M: 31
  Cell cycle S: 10
[4]; 0.005 μM, Air
  Cell cycle G0/G1: 52
  Cell cycle G2/M: 34
  Cell cycle S: 13
[4]; 0.005 μM, Nitrogen
  Cell cycle G0/G1: 56
  Cell cycle G2/M: 32
  Cell cycle S: 11
[4]; 0.05 μM, Air
  Cell cycle G0/G1: 55
  Cell cycle G2/M: 33
  Cell cycle S: 12
[4]; 0.05 μM, Nitrogen
  Cell cycle G0/G1: 43
  Cell cycle G2/M: 44
  Cell cycle S: 12
[4]; 0.5 μM, Air
  Cell cycle G0/G1: 55
  Cell cycle G2/M: 32
  Cell cycle S: 13
[4]; 0.5 μM, Nitrogen
  Cell cycle G0/G1: 21
  Cell cycle G2/M: 46
  Cell cycle S: 33
[4]; 5 μM, Air
  Cell cycle G0/G1: 55
  Cell cycle G2/M: 32
  Cell cycle S: 12
[4]; 5 μM, Nitrogen
  Cell cycle G0/G1: 35
  Cell cycle G2/M: 26
  Cell cycle S: 38
[5]; 0.005 μM, Air
  Cell cycle G0/G1: 52
  Cell cycle G2/M: 35
  Cell cycle S: 12
[5]; 0.005 μM, Nitrogen
  Cell cycle G0/G1: 46
  Cell cycle G2/M: 40
  Cell cycle S: 14
[5]; 0.05 μM, Air
  Cell cycle G0/G1: 50
  Cell cycle G2/M: 35
  Cell cycle S: 15
[5]; 0.05 μM, Nitrogen
  Cell cycle G0/G1: 37
  Cell cycle G2/M: 52
  Cell cycle S: 11
[5]; 0.5 μM, Air
  Cell cycle G0/G1: 48
  Cell cycle G2/M: 37
  Cell cycle S: 14
[5]; 0.5 μM, Nitrogen
  Cell cycle G0/G1: 8
  Cell cycle G2/M: 84
  Cell cycle S: 8
[5]; 5 μM, Air
  Cell cycle G0/G1: 47
  Cell cycle G2/M: 39
  Cell cycle S: 13
[5]; 5 μM, Nitrogen
  Cell cycle G0/G1: 14
  Cell cycle G2/M: 36
  Cell cycle S: 50
[6]; CHO-AA8, read-out: IC90 AA8 Air
  IC90: > 300000 nM
[6]; CHO-AA8, read-out: IC90 AA8 N2
  IC90: 850 nM
[7]; [9]
  AUC: 177 µg·h/mL
  half-life: 10.1 min
[7]; [10]
  Cmax: 6330 ng/mL
  Tmax: 45 min
[7]; CD-1, mouse, plasma, ip, 25 mg/kg, 25 mg/kg i.p., 10% PEG, CD-1 mice, read-out: AUC
  AUC: 247 µg·h/mL
[7]; CD-1, mouse, plasma, ip, 25 mg/kg, 25 mg/kg i.p., 10% PEG, CD-1 mice, read-out: Half-life
  half-life: 4.43 min
[7]; CD-1, mouse, plasma, ip, 50 mg/kg, 50 mg/kg i.p., 30% PEG/70% Saline, CD-1 mice, read-out: AUC
  AUC: 438 µg·h/mL
[7]; CD-1, mouse, plasma, ip, 50 mg/kg, 50 mg/kg i.p., 30% PEG/70% Saline, CD-1 mice, read-out: Half-life
  half-life: 11 min
[7]; [11]
  Cmax: 38500 ng/mL
  Tmax: 5 min
[7]; CD-1, mouse, plasma, ip, 50 mg/kg, 50 mg/kg i.p., Saline, CD-1 mice, read-out: AUC
  AUC: 635 µg·h/mL
[7]; CD-1, mouse, plasma, ip, 50 mg/kg, 50 mg/kg i.p., Saline, CD-1 mice, read-out: Half-life
  half-life: 7.91 min
[7]; [12]
  Cmax: 27500 ng/mL
  Tmax: 2 min
[7]; CD-1, mouse, plasma, iv, 50 mg/kg, 50 mg/kg i.v., 30% PEG/70% Saline, CD-1 mice, read-out: AUC
  AUC: 325 µg·h/mL
[7]; CD-1, mouse, plasma, iv, 50 mg/kg, 50 mg/kg i.v., 30% PEG/70% Saline, CD-1 mice, read-out: Half-life
  half-life: 6.7 min
[7]; [13]
  Cmax: 930 ng/mL
  Tmax: 15 min
[7]; CD-1, mouse, plasma, po, 50 mg/kg, 50 mg/kg p.o., Saline, CD-1 mice, read-out: AUC
  AUC: 40.4 µg·h/mL
[7]; CD-1, mouse, plasma, po, 50 mg/kg, 50 mg/kg p.o., Saline, CD-1 mice, read-out: Half-life
  half-life: 25.7 min
[7]; [14]
  Cmax: 15800 ng/mL
  Tmax: 15 min
[7]; CD-1, mouse, plasma, po, 100 mg/kg, 100 mg/kg p.o., Saline, CD-1 mice, read-out: AUC
  AUC: 784 µg·h/mL
[7]; CD-1, mouse, plasma, po, 100 mg/kg, 100 mg/kg p.o., Saline, CD-1 mice, read-out: Half-life
  half-life: 95.2 min
[7]; mouse, plasma, po, 50 mg/kg p.o., Saline, CD-1 mice, read-out: F (Bioavailability)
  bioavailability: 13.6%
[7]; [15]
  Cmax: 90100 ng/mL
  Tmax: 5 min
[7]; nude, mouse, plasma, ip, 150 mg/kg, 150 mg/kg i.p., Saline, nude mice with H460 tumor, plasma, read-out: AUC
  AUC: 1240 µg·h/mL
[7]; nude, mouse, plasma, ip, 150 mg/kg, 150 mg/kg i.p., Saline, nude mice with H460 tumor, plasma, read-out: Half-life
  half-life: 58.7 min
[7]; [16]
  Cmax: 3380 ng/mL
  Tmax: 15 min
[7]; nude, mouse, tumor, ip, 150 mg/kg, 150 mg/kg i.p., Saline, nude mice with H460 tumor, Tumor PK, read-out: AUC
  AUC: 307 µg·h/mL
[8]; HT-29, read-out: IC50 in HT29 cells, 0.6% O2
  IC50: 25 µM
[8]; HT-29, read-out: IC50 in HT29 cells, Air
  IC50: > 100 µM
[8]; HT-29, read-out: IC50 in HT29 cells, N2
  IC50: 2 µM
